From ChEMBL document CHEMBL3991601, “The target landscape of clinical kinase drugs” (Science, 2017)
Calls of active or inactive are those of the source.

Legend:
[1] = target: Aurora kinase B (Homo sapiens, UniProt Q96GD4)
[2] = target: Mitogen-activated protein kinase 7 (Homo sapiens, UniProt Q13164)
[3] = target: T1, Long-chain-fatty-acid--CoA ligase 5 (Homo sapiens, UniProt Q9ULC5)
T1 sequence (Q9ULC5 whole entry): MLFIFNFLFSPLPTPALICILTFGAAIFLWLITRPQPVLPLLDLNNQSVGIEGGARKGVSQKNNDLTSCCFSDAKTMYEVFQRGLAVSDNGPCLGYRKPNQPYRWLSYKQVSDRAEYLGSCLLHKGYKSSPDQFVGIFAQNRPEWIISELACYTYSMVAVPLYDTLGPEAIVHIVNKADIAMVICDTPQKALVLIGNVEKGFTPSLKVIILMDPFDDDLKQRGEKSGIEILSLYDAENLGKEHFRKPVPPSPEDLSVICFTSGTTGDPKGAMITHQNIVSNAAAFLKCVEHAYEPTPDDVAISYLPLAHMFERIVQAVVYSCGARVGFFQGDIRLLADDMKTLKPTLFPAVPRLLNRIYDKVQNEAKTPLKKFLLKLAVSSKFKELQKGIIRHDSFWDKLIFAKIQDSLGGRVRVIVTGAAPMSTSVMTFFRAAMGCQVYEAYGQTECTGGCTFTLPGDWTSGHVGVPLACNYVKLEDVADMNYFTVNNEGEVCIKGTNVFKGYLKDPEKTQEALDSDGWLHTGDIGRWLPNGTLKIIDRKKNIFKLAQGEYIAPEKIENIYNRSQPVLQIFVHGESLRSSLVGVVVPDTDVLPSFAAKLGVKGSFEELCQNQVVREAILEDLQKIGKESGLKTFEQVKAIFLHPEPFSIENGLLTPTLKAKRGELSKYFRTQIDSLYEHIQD

[4] = target: T2, Glycogen phosphorylase, brain form (Homo sapiens, UniProt P11216)
T2 sequence (P11216 whole entry): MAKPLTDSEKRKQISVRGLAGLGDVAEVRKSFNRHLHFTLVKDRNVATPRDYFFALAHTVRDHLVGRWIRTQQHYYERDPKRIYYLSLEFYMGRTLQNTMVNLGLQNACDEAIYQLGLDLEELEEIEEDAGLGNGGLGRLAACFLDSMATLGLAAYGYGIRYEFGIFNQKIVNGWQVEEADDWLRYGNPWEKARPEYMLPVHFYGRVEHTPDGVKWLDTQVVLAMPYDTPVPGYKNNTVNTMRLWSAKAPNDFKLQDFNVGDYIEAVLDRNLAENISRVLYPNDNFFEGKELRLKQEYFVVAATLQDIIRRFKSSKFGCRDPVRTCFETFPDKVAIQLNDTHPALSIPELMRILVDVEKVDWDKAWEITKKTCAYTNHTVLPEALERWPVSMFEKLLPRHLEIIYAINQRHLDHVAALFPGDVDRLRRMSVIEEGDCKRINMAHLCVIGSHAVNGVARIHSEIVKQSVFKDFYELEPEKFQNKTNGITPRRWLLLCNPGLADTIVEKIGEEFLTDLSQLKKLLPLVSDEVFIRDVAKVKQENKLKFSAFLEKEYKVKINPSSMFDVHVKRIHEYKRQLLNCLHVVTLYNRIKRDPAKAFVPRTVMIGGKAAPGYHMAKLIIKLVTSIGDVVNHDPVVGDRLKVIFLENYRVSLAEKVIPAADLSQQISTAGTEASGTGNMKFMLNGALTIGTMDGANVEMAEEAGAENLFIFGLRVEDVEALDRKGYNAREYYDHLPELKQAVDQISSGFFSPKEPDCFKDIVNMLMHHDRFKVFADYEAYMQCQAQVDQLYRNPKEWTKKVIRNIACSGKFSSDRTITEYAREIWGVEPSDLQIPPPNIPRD

[5] = target: MAP kinase-activated protein kinase 2 (Homo sapiens, UniProt P49137)
Sequence of MAP kinase-activated protein kinase 2 (P49137 whole entry): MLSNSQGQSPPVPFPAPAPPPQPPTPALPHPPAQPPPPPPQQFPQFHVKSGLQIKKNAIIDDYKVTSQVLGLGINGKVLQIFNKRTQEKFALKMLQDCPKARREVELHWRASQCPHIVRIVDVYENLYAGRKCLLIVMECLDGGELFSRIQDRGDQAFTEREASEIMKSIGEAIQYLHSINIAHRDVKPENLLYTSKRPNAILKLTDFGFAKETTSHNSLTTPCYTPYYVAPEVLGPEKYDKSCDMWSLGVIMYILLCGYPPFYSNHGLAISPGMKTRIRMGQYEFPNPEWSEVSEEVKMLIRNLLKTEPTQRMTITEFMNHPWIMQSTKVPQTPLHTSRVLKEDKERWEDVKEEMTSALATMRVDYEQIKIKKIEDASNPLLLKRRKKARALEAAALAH

[6] = target: Dual specificity protein kinase CLK1 (Homo sapiens, UniProt P49759)
Sequence of Dual specificity protein kinase CLK1 (P49759 whole entry): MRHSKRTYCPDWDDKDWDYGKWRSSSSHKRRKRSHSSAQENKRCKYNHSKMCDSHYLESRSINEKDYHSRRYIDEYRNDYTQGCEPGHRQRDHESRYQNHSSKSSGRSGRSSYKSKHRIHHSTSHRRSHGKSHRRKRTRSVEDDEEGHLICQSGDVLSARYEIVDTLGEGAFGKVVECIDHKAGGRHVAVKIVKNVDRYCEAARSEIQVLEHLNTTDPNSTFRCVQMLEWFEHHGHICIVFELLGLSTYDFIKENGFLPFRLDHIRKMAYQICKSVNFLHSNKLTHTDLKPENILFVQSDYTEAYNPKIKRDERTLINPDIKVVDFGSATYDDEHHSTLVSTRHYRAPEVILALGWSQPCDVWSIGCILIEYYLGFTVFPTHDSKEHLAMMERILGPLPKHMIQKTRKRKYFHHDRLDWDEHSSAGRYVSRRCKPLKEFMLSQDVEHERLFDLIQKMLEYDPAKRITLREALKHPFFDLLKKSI

[7] = target: Serine/threonine-protein kinase MRCK alpha (Homo sapiens, UniProt Q5VT25)
Sequence of Serine/threonine-protein kinase MRCK alpha (Q5VT25 whole entry): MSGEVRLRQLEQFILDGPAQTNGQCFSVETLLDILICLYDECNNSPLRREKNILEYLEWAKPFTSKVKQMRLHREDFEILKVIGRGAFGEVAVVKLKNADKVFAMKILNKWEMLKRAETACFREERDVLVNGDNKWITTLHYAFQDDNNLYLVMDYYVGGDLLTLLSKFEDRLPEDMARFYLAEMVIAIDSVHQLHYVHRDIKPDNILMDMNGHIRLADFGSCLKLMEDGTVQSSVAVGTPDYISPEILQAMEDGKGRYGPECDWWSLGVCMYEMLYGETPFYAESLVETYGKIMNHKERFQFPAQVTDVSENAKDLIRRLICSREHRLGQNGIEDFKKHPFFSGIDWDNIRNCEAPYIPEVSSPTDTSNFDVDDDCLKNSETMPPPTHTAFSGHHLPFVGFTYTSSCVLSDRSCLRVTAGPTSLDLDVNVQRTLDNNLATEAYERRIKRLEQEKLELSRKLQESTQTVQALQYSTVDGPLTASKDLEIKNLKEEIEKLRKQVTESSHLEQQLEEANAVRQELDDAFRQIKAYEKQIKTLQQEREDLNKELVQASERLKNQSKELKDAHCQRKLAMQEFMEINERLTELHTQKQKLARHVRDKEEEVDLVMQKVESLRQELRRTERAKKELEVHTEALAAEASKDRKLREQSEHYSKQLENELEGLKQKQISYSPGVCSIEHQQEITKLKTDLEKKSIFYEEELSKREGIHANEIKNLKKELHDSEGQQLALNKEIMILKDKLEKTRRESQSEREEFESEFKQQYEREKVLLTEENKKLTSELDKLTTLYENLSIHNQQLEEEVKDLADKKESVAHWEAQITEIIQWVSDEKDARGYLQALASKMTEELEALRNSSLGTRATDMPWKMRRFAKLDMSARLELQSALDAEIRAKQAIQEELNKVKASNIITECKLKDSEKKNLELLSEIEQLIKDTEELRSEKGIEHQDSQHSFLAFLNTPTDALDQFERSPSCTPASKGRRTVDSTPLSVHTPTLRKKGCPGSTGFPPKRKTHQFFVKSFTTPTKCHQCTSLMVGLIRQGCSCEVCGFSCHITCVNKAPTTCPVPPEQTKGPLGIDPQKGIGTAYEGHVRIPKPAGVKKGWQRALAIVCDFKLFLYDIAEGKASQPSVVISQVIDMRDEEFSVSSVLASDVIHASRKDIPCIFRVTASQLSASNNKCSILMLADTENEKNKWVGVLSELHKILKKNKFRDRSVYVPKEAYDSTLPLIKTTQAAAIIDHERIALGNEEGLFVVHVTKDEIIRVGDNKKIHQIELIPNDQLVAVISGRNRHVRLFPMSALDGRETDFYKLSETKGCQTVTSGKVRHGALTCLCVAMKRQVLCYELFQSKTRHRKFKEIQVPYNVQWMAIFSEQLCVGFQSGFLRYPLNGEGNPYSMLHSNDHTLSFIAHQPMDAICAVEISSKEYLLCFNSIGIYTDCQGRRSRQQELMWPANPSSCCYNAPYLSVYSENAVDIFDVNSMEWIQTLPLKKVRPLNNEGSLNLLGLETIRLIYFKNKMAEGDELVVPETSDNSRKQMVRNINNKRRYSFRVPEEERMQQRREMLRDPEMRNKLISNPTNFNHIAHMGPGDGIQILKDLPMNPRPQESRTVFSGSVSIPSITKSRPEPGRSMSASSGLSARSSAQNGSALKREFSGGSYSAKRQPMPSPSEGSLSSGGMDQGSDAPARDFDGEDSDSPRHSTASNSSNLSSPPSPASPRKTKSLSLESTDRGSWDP

[8] = target: Cyclin-dependent kinase 4 (Homo sapiens, UniProt P11802)
Sequence of Cyclin-dependent kinase 4 (P11802 whole entry): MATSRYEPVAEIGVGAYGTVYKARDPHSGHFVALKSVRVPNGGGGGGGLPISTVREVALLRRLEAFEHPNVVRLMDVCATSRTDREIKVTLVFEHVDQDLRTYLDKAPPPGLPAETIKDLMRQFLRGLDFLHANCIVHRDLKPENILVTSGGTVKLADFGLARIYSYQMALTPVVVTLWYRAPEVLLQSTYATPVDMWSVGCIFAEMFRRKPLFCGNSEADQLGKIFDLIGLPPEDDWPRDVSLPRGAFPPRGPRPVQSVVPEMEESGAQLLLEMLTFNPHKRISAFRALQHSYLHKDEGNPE

[9] = target: T3, Delta(24)-sterol reductase (Homo sapiens, UniProt Q15392)
T3 sequence (Q15392 whole entry): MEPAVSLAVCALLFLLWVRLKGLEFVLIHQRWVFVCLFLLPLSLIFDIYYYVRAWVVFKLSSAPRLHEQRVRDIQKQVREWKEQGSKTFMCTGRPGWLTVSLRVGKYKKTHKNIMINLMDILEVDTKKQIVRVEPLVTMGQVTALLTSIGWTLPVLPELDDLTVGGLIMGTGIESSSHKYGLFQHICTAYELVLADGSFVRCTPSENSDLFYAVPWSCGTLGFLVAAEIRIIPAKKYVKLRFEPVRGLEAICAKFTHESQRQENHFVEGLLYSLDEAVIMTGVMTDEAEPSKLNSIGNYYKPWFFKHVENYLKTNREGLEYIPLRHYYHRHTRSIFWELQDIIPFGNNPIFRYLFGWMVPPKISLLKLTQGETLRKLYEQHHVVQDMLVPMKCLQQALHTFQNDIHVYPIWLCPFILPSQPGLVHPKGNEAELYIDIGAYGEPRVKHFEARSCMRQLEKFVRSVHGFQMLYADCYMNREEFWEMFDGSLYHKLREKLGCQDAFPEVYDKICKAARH
Note: in the data inactive means no Kd found up to 30 µM.

Sequence of Aurora kinase B (Q96GD4 whole entry): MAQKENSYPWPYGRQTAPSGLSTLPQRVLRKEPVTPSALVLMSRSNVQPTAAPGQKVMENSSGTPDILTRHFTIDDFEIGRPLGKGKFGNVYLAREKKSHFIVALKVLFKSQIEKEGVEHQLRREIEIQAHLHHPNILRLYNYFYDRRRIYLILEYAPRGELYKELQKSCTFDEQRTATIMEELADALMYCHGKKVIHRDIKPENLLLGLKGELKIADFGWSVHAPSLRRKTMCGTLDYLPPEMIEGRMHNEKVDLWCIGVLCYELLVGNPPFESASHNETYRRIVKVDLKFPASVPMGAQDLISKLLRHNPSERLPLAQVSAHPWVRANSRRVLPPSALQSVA
Sequence of Mitogen-activated protein kinase 7 (Q13164 whole entry): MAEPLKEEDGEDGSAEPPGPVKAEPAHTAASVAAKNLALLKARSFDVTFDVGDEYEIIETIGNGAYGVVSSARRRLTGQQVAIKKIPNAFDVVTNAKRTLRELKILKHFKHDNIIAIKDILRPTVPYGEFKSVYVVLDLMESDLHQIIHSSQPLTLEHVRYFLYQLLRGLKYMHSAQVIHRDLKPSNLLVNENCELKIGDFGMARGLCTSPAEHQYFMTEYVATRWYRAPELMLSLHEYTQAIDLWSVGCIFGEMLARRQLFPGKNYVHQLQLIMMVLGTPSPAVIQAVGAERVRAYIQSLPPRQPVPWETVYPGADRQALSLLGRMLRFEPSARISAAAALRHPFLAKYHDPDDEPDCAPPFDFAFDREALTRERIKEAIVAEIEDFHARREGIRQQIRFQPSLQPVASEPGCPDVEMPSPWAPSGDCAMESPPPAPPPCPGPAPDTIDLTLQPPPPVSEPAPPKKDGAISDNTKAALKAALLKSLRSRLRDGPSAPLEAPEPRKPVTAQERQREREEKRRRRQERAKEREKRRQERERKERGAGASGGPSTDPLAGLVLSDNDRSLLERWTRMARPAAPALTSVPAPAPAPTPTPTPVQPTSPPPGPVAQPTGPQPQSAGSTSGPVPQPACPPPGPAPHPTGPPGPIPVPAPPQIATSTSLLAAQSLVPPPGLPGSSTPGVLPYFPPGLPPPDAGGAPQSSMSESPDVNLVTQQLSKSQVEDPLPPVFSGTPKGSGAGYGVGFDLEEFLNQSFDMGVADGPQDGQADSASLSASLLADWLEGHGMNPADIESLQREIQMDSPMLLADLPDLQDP

| Structure (SMILES) | Kd [1] | Kd [2] | Kd [3] | Kd [4] | Kd [5] | Kd [6] | Kd [7] | Kd [8] | Kd [9] |
| --- | --- | --- | --- | --- | --- | --- | --- | --- | --- |
| CNC(=O)c1cccc(-c2ccc3c(N4CCOC[C@@H]4C)nc(N4CCOC[C@@H]4C)nc3n2)c1 [VISTUSERTIB] | > 30 µM (inactive) | > 30 µM (inactive) | > 30 µM (inactive) | > 30 µM (inactive) | > 30 µM (inactive) | > 30 µM (inactive) | > 30 µM (inactive) | > 30 µM (inactive) | > 30 µM (inactive) |
| NC(=O)c1ccc(N(C(N)=O)c2c(F)cccc2F)nc1-c1ccc(F)cc1F [VX-702] | > 30 µM (inactive) | > 30 µM (inactive) | > 30 µM (inactive) | > 30 µM (inactive) | 0.0003 µM (active) | > 30 µM (inactive) | > 30 µM (inactive) | > 30 µM (inactive) | > 30 µM (inactive) |
| COc1cc2ncnc(Nc3ccc(O)cc3)c2cc1OC [WHI-P131] | > 30 µM (inactive) | > 30 µM (inactive) | > 30 µM (inactive) | > 30 µM (inactive) | > 30 µM (inactive) | > 30 µM (inactive) | > 30 µM (inactive) | > 30 µM (inactive) | > 30 µM (inactive) |
